From patent US10059741B2 (priority 2015, dated 2018)
Values joined by “and” are separate entries in the source; they are usually repeats but may differ in a detail not shown here. Identical values can stand only once. Like-named read-outs stand apart in the source and are kept apart here.

Tests used:
H3N2 Perth/16/2009 [1] = assay: microbe, parasite or virus in culture; format: cell-based, influenza A virus; details: Influenza A virus, H3N2, MDCK, read-out: EC50 (μM) H3N2 Perth/16/2009
[2] = test system: Influenza A H1N1 Influenza A/California/7/2009; assay: microbe, parasite or virus in culture; format: cell-based, influenza A virus; details: Influenza A virus, H1N1, MDCK
[3] = test system: Influenza A H1N1 Influenza A/Texas/4/2009; assay: microbe, parasite or virus in culture; format: cell-based, influenza A virus; details: Influenza A virus, H1N1, MDCK
H5N1 A/Duck/MN/1525/81 = assay: microbe, parasite or virus in culture; format: cell-based, influenza A virus; details: Influenza A H5N1 Duck/MN/1525/81, Neutral Red
H1N1 California/07/2009 [4] = assay: microbe, parasite or virus in culture; format: cell-based, influenza A virus
H1N1 A/Brisbane/59/2007 = assay: Cytopathic effect (CPE) inhibition in MDCK cells, neutral red; format: cell-based, influenza A virus
[5] = test system: H5N1 A/Hong Kong/213/2003; assay: microbe, parasite or virus in culture; format: cell-based, influenza A virus; details: Influenza A virus, H5N1, MDCK
H3N2 Perth/16/2009 [6] = assay: microbe, parasite or virus in culture; format: cell-based, influenza A virus; details: Influenza A virus, H3N2, MDCK, read-out: EC50 (μM) H3N2 Perth/16/2009; remark: listed apart in the source
[7] = test system: influenza virus, various viral strains; assay: organism not typed; format: cell-based
[8] = test system: Influenza A H3N2 Influenza A/Brisbane/10/2007; assay: microbe, parasite or virus in culture; format: cell-based, influenza A virus; details: Influenza A virus, H3N2, MDCK
H1N1 California/07/2009 [9] = assay: microbe, parasite or virus in culture; format: cell-based, influenza A virus; details: Influenza A virus, H1N1, MDCK
[10] = test system: Influenza B Florida/04/2006; assay: Cytopathic effect (CPE) inhibition in MDCK cells, neutral red; format: cell-based; details: Influenza B virus, MDCK; Influenza B Florida/04/2006; Neutral Red; read-out: EC50
H7N9 A/Anhui/1/2013 = assay: microbe, parasite or virus in culture; format: cell-based, influenza A virus; details: Influenza A virus, H7N9, MDCK
[11] = test system: Madin Darby canine kidney (MDCK) cells
[12] = test system: Influenza B/Brisbane/60/2008; assay: microbe, parasite or virus in culture; format: cell-based; details: Influenza B virus, MDCK; Influenza B Influenza B/Brisbane/60/2008; CellTiter-Glo
in vitro = details: dog
[13] = test system: influenza virus, various viral strains; assay: Influenza antiviral evaluation assay (CPE, neutral red dye uptake) in MDCK cells against various viral strains (Tables 8, 9); format: cell-based
[14] = test system: Influenza B Brisbane/60/2008; assay: Cytopathic effect (CPE) inhibition in MDCK cells, neutral red; format: cell-based; details: Influenza B virus, MDCK; Influenza B Brisbane/60/2008; Neutral Red; read-out: EC50
[15] = MDCK, Influenza A H5N1 Duck/MN/1525/81, Visual

Question: What does the source list for NC(=O)c1ncn([C@@H]2O[C@H](CO)[C@@H](O)[C@H]2O)n1 [Ribavirin, reference compound]?
Answer: EC50 (H3N2 Perth/16/2009 [1]): 1.5 to 10 µM; EC50 [2]: 6.53 µM; EC90 [2]: 16.2 µM; EC50 [3]: 14.6 µM; EC90 [3]: > 100 µM; EC50 (H5N1 A/Duck/MN/1525/81): 5.6 µM; EC50 (H5N1 A/Duck/MN/1525/81; Influenza A virus, H5N1, MDCK): 9.6 µM; EC50 (H1N1 California/07/2009 [4]): 8.5 µM and 6.8 µM and 10 µM; EC50 (H1N1 California/07/2009 [4]; Influenza A virus, H1N1, MDCK, read-out: EC50 (μM) H1N1 California/07/2009): 10 to 25 µM; EC50 (H1N1 A/Brisbane/59/2007): 5.6 µM; EC50 (H1N1 A/Brisbane/59/2007; Influenza A virus, H1N1, MDCK): 7.2 µM; EC50 ([5]; Influenza A H5N1 A/Hong Kong/213/2003, Drug Assay Neutral Red): 3.6 µM; EC50 ([5]; Influenza A H5N1 Hong Kong/213/2003, Neutral Red): 39 µM; EC50 (H3N2 Perth/16/2009 [6]): 10 to 25 µM; EC90 [7]: 4.1 µM; EC90 ([7]; MDCK): 5.2 µM; EC50 ([7]; MDCK, Influenza A H1N1 A/Solomon Is./3/2006-M, Drug Assay Visual): 10 µM; EC50 ([7]; MDCK, Influenza A H1N1 California/04/2009-M, Visual): 10 µM; EC50 ([7]; MDCK, Influenza A H1N1 Solomon Is./3/2006-M, Visual): 10 µM; EC50 ([7]; MDCK, Influenza A H3N2 Victoria/3/75-M, Visual): 10 µM; EC50 ([7]; MDCK, Influenza A H5N1 A/Hong Kong/213/2003, Drug Assay Visual): 4.2 µM; EC50 [7, 15]: 10 µM; EC90 [7, 15]: 9 µM; EC50 ([7]; MDCK, Influenza A H5N1 Hong Kong/213/2003, Visual): 43 µM; EC50 ([7]; MDCK, Influenza A H7N9 A/Anhui/1/2013, Drug Assay Visual): 3.2 µM; EC50 ([7]; MDCK, Influenza B Sichuan/379/99-M, Visual): 10 µM; EC50 [8]: 2.81 µM; EC90 [8]: 11.8 µM; EC90 (H1N1 California/07/2009 [9]): 5.5 µM; EC50 (H1N1 California/07/2009 [9]; read-out: EC50 (μM) H1N1 California/07/2009): 1.5 to 10 µM; EC50 [10]: 4.8 µM; EC50 (H7N9 A/Anhui/1/2013; Influenza A H7H9 A/Anhui/1/2013, Neutral Red): 18 µM; EC50 (H7N9 A/Anhui/1/2013; Influenza A H7N9 A/Anhui/1/2013, Drug Assay Neutral Red): 3 µM; CC50 ([11]; MDCK cells, run with Influenza A H5N1 Duck/MN/1525/81, Neutral Red): > 320 µM; CC50 ([11]; MDCK cells, run with Influenza A H5N1 Duck/MN/1525/81, Visual): > 320 µM; CC50 ([11]; MDCK cells, run with Influenza A H5N1 Hong Kong/213/2003, Neutral Red): > 1000 µM; CC50 ([11]; MDCK cells, run with Influenza A H5N1 Hong Kong/213/2003, Visual): > 1000 µM; CC50 ([11]; run with Influenza A H5N1 A/Hong Kong/213/2003, Neutral Red): > 1000 µM; CC50 ([11]; run with Influenza A H5N1 A/Hong Kong/213/2003, Visual): > 1000 µM; CC50 ([11]; run with Influenza A H7N9 A/Anhui/1/2013, Neutral Red): > 1000 µM; CC50 ([11]; run with Influenza A H7N9 A/Anhui/1/2013, Visual): > 1000 µM; EC50 [12]: 66.2 µM; EC90 [12]: > 100 µM; CC50 (in vitro; CC50 (μM) H1N1 California/07/2009): > 100 µM; CC50 (in vitro; CC50 (μM) H3N2 Perth/16/2009): > 100 µM; EC50 [13]: 9.3 µM and 9.6 µM and 8.9 µM; EC50 ([13]; MDCK): 9.8 µM; EC50 [14]: 5.6 µM
